Earlier results, collected in US9322040B2, “Pseudonocardia sp. and method for preparing deoxynyboquinone by utilizing same” (SOUTH CHINA SEA INSTITUTE OF OCEANOLOGY, CHINESE ACADEMY OF …, priority 2011, dated 2016).

Tested on: cancer cell

Row | SMILES | cytotoxin activity | activity under anoxic conditions (anoxic conditions) | activity relative to Deoxynyboquinone (compared with the activity of Deoxynyboquinone) [times weaker]
1 | Cc1cc(=O)[nH]c2c1C(=O)c1c(C)cc(=O)n(C)c1C2=O [Deoxynyboquinone] | significant cytotoxin activity | stronger activity can be still shown under anoxic conditions | –
2 | Cc1cc(=O)n(C)c2c1C(=O)c1c(C)cc(=O)n(C)c1C2=O [SCH 538415, reference compound] | – | – | 10
